In US20210322417A1, “GASTRIC CANCER TREATMENTS” (The Jackson Laboratory, priority 2018, published 2021):

Tests used:
[1] = system: CSK null OE19 cells; assay: CellTiter-Glo cell viability assay, CSK null OE19; format: cell-based, human; conditions: 6 days
Method: (§3) Then N87 and OE19 cells were infected with the corresponding viruses and the Lapatinib resistance was examined by treating the cells with indicated doses of Lapatinib for 6 days. Cell viability assay was performed as described below at the end of treatment.
(§4) For the cell viability assays, 4,000 cells/each well in a 96-well plate were treated with indicated drugs for 6 days and cell viabilities were measured using the CellTiter-Glo® luminescent cell viability assay kit according to the manufacturer's instructions (Promega). The luminescence intensity was measured using a multi-label plate reader (SpectraMax M5, Molecular Devices). The cell viabilities were calculated as relative values compared to the untreated controls.

[2] = system: PTEN null OE19 cells; assay: CellTiter-Glo cell viability assay, PTEN null OE19; format: cell-based, human; conditions: 6 days
Method: as §3, §4

[3] = system: OE19 cells transduced with non-targeting gRNA; assay: CellTiter-Glo cell viability assay, control OE19; format: cell-based, human; conditions: indicated doses of the agent in combination with 0.05 μM Lapatinib, 6 days
From the text: Viral particles were generated as described above.

[4] = system: CSK null OE19 cells; assay: Caspase-Glo 3/7 apoptosis assay, CSK null cells; format: cell-based, human; conditions: Lapatinib 48 h treatment
Method: (§1) We examined apoptosis induced by Lapatinib treatment in CSK or PTEN null cells as well as the control cells by measuring caspase-3/7 activation (Caspase-Glo assay).
(§2) Caspase activity was detected by using Caspase-Glo 3/7 assay kit (Promega). Briefly. The GC cells were seeded in 96-well white luminometer assay plates at a density of 4,000 cells per well and incubated at 37° C. Cells were treated with Lapatinib for 48 h, 100 ul caspase 3/7 reagents were added to each well and incubated for 1 h on rotary shaker at room temperature. The luminescence intensity was measured using a multi-label plate reader (SpectraMax M5, Molecular Devices).

[5] = system: PTEN null OE19 cells; assay: Caspase-Glo 3/7 apoptosis assay, PTEN null cells; format: cell-based, human; conditions: Lapatinib 48 h treatment
Method: as §1, §2

[6] = system: OE19 cells transduced with non-targeting gRNA; assay: Caspase-Glo 3/7 apoptosis assay, control cells; format: cell-based, human; conditions: Lapatinib 48 h treatment
Method: as §1, §2

[7] = system: N87-PTEN−/− tumors; assay: Xenograft tumor model, N87-PTEN−/−; conditions: lapatinib dosing test, three weeks of treatment, compared to N87-WT
[8] = system: N87-WT tumors; assay: Xenograft tumor model, N87-WT; format: in vivo, mice; conditions: lapatinib dosing test, three weeks of treatment
From the text: Tumors were induced by injecting N87-WT. […] Drug treatment was initiated when tumors reached a volume of 150-250 mm^3. Mice were randomly divided into seven treatment groups including 8-10 mice in each group: 1) vehicle only, 2) lapatinib only, 3) lapatinib+trametinib, 4) lapatinib+copanlisib, 5) trametinib+copanlisib, 6) lapatinib+trametinib+copanlisib, and 7) 5-FU.

[9] = system: HER2-amplified GC; conditions: HER2-positive GC patients, clinical trial data; cited from earlier work
[10] = system: N87-CSK−/− tumors; conditions: lapatinib dosing test, three weeks of treatment; N87-CSK−/− xenograft, compared to N87-WT
[11] = AZD0530 at highest concentration (1 μM) in combination with 0.05 μM Lapatinib
[12] = 0.1 μM of the agent in combination with 0.05 μM Lapatinib
[13] = indicated doses of the agent in combination with 0.05 μM Lapatinib

CN1CCN(CCOc2cc(OC3CCOCC3)c3c(Nc4c(Cl)ccc5c4OCO5)ncnc3c2)CC1 [AZD0530, Saracatinib]
cells survived [1, 11]: 9.15±0.88%
cells survived [2, 11]: 42.49±2.54%

COc1c(OCCCN2CCOCC2)ccc2c1N=C(NC(=O)c1cnc(N)nc1)N1CCN=C21 [Copanlisib]
effect on cell growth [1, 12]: significantly inhibited the cell growth, but not completely
effect on cell growth/viability [1, 13]: inhibited the cell growth
effect on cell growth [2, 12]: significantly inhibited the cell growth, but not completely
effect on cell growth/viability [2, 13]: inhibited the cell growth
effect on cell growth [3]: inhibited the cell growth

CS(=O)(=O)CCNCc1ccc(-c2ccc3ncnc(Nc4ccc(OCc5cccc(F)c5)c(Cl)c4)c3c2)o1 [Lapatinib]
effect on cell growth ([1]; 0.05 μM Lapatinib alone): could not inhibit the growth
fold of caspase-3/7 activity compared with vehicle treated cells [4]: 1.55±0.16 fold
fold of caspase-3/7 activity compared with vehicle treated cells [5]: 1.50±0.10 fold
fold of caspase-3/7 activity compared with vehicle treated cells [6]: 3.79±0.16 fold
tumor sensitivity to treatment [7]: resistant to lapatinib treatment
tumor sensitivity to treatment [8]: sensitive to lapatinib treatment
effect on cell growth ([2]; 0.05 μM Lapatinib alone): could not inhibit the growth
survival [9]: failed to improve survival
tumor sensitivity to treatment [10]: relatively insensitive to lapatinib
